By IC50 is commonly meant the midpoint of a concentration-inhibition curve. The Ki is the equilibrium dissociation constant of an inhibitor or competing ligand from its target.

Consider three molecules from patent US6562837B1, “Use of tetrahydroisoquinoline compounds for the treatment of septicemia” (Korea Institute of Science & Technology, priority 1998, dated 2003).

Experiment [1] has as its system thrombus formation in AVS tube. Kind of experiment: Thrombus formation in arterio-venous shunt (AVS) tube in rats. It counts as in vivo. Conditions: for Weight (mg) of thrombus: control 42.67 ± 5.381. On the procedure:
An AVS tube was prepared. For this, a scalp vein set was cut into a length of 18 cm, and each end was connected to a 18G syringe needle while a 100% cotton thread 5 cm long was fixed to the center of the tube. Rats were anesthetized with ketamine (250 mg/kg) by injection (i.m.) and underwent laparotomy. An AVS tube filled with saline was installed between the abdominal aorta and the renal vein in such a way that its one syringe needle was inserted in the abdominal aorta and the other syringe needle was inserted in the renal vein. Blood was allowed to pass through the AVS tube so as to form thrombus on the cotton thread. After circulation of blood through the AVS tube for 15 min, the thread was taken out from the AVS tube. The weight of the thrombus formed on the cotton thread was determined by weighing the thread.

A further experiment concerns human platelets. Briefly: Inhibitory effect on platelet aggregation in human platelet rich plasma. It counts as cell-based. On the procedure: For experiment, a blood platelet concentrate which was purchased from the Blood Bank of the Seoul National University Hospital, Korea, was measured for the number of platelets with the aid of a platelet analyzer (PLT-4, Texas Instruments), and diluted with phosphate buffered saline (hereinafter referred to as “PBS”) to give platelet rich plasma (hereinafter referred to as “PRP”) which ranged, in platelet number, from 300×10^6 to 400×10^6/ml. After being incubated at 37° C. for 3 min, PRP was added with ADP, collagen or epinephrine to induce platelet aggregation. The reduction in turbidity of PRP was observed and the degree of aggregation was monitored using a platelet aggregometer, such as that manufactured by Chrono-Log Corp. U.S.A., identified as “Model 500VS”.
The inhibitory activities of sample compounds against the platelet aggregation were evaluated as the % inhibition calculated according to the following equation: […]
A: aggregation degree of platelets obtained when adding a platelet aggregation inducer alone;
B: aggregation degree of platelets obtained when adding a combination of a platelet aggregation inducer and a sample.
Obtained using human platelets, the inhibitory effects of the compounds of Chemical Formulas 1 and 2 on platelet aggregation are given, along with the results from the control higenamine, in Table 1, below.

Another experiment deals with α-receptor. Kind of experiment: Binding affinity to α-adrenoceptor, [3H]prazosin, rat cerebral cortical membrane. Conditions: [3H]prazosin 200 pM, 25° C., 30 min, read-out: Dissociation constant Ki (M) for cerebral α-receptor of rat. On the procedure: For this, the cerebral cortex obtained from rats (Sprague-Dawley, 250±20 g; unless particularly mentioned, the same rats were used in the following experiments) was homogeneously mixed with a 20× buffer (50 mM Tris, 5 mM MgSO4, 1 mM EDTA, 1 mM ascorbic acid, pH 7.7) and then, centrifuged three times at 35,000×g for 15 min and the pellet was stored at −70° C. A solution of 5 mg of the pellet in 1 ml of the buffer was incubated, along with [^3H]prazosin (200 pM) and samples, at 25° C. for 30 min followed by adding 10 ml of a buffer (50 mM Tris, pH 7.7) to quench the binding reaction. The resulting solution was filtered through a Whatman GF/C glass microfiber filter which was then shaken for 2 hours while being completely submerged in a scintillation cocktail. The radioactivity was measured using a scintillation counter (Beckman, LS6500)

A further experiment concerns Rat thoracic aorta. Briefly: Relaxation of phenylephrine-contracted isolated rat thoracic aorta. It is filed as cell-based.
Where [2] appears, read: 10 mg/kg orally once a day for successive three days.
[3] abbreviates: 25 mg/kg orally once, first series, control 33.61 mg.
Where [4] appears, read: 25 mg/kg orally once, first series, control 33.61 ± 7.620.
[5] abbreviates: 50 mg/kg orally once a day for successive three days.
Setting [6] is: 50 mg/kg orally once, second series, control 39.54 mg.
Setting [7] is: 50 mg/kg orally once, second series, control 39.54 ± 5.625.
The mark [8] stands for this setting: Homo sapiens, read-out: IC50 (M), ADP-induced platelet aggregation.
The mark [9] stands for this setting: human PRP, inducer collagen 2-4 × 10^−6 g/ml, read-out: IC50 (M), collagen-induced platelet aggregation.
Setting [10] is: human PRP, inducer epinephrine 2 × 10^−6 M, read-out: IC50 (M), epinephrine-induced platelet aggregation.

Like-named read-outs stand apart in the source and are kept apart here.

Turning to `Oc1cc2c(cc1O)C(Cc1cccc3ccccc13)NCC2` (stereo not drawn) [Compound 1, 1-α-naphthylmethyl-6,7-dihydroxy-1,2,3,4-tetrahydroisoquinoline], the “% Inhibition of thrombus formation” value was found to be 25.5% in experiment [1] (setting [2]), 39.7% in experiment [1] (setting [3]), 28.0% in experiment [1] (setting [5]) and 24.8% in experiment [1] (setting [6]). The “Weight (mg) of thrombus” value in experiment [1] (setting [2]) was 31.78 ± 8.385 mg; in experiment [1] (setting [5]) it was 30.72 ± 6.334 mg. The “Weights (mg) of thrombus” value in experiment [1] (setting [4]) turned out to be 20.27 ± 5.366 mg; in experiment [1] (setting [7]), 29.72 ± 5.975 mg. Also, the IC50 with human platelets (setting [8]) turned out to be 0.00073 M; in the experiment on human platelets (setting [9]) it was 9.2e-05 M; in the experiment with human platelets (setting [10]), 3.4e-06 M; with Rat thoracic aorta it was 2.75 µM. Also, the Ki at α-receptor turned out to be 2.7e-07 M.

On to `Oc1cc2c(cc1O)C(Cc1ccc3ccccc3c1)NCC2` (stereo not drawn) [Compound 2, 1-β-naphthylmethyl-6,7-dihydroxy-1,2,3,4-tetrahydroisoquinoline], for which the “% Inhibition of thrombus formation” value in experiment [1] (setting [2]) amounted to 24.4%; in experiment [1] (setting [3]) it was 32.5%; in experiment [1] (setting [5]), 29.3%; in experiment [1] (setting [6]), 27.7%. Further, the “Weight (mg) of thrombus” value in experiment [1] (setting [2]) turned out to be 32.24 ± 4.836 mg; in experiment [1] (setting [5]), 30.18 ± 6.571 mg. The “Weights (mg) of thrombus” value in experiment [1] (setting [4]) was found to be 22.68 ± 10.127 mg; in experiment [1] (setting [7]) it was 28.58 ± 4.234 mg. In addition, the IC50 in the experiment with human platelets (setting [8]) came to 0.00086 M; with human platelets (setting [9]), 9.6e-06 M; with human platelets (setting [10]), 6e-06 M; in the experiment on Rat thoracic aorta, 2.81 µM. At α-receptor, the Ki was 1.5e-07 M.

On to `Oc1ccc(CC2NCCc3cc(O)c(O)cc32)cc1` (stereo not drawn) [Higenamine, reference compound], for which the “% Inhibition of thrombus formation” value was 13.9% in experiment [1] (setting [2]), 31.6% in experiment [1] (setting [3]), 18.7% in experiment [1] (setting [5]) and 25.1% in experiment [1] (setting [6]). Besides, the “Weight (mg) of thrombus” value in experiment [1] (setting [2]) came out at 36.76 ± 7.964 mg; in experiment [1] (setting [5]) it was 34.68 ± 8.513 mg. Besides, the “Weights (mg) of thrombus” value in experiment [1] (setting [4]) is 22.98 ± 11.271 mg; in experiment [1] (setting [7]), 29.61 ± 5.059 mg. The half-maximal inhibitory concentration (IC50) in the experiment on human platelets (human PRP, inducer ADP 1 × 10^−3 M, read-out: IC50 (M), ADP-induced platelet aggregation) was over 0.001 M; in the experiment on human platelets (setting [9]), 7e-05 M; with human platelets (setting [10]), 1.9e-05 M; with Rat thoracic aorta, 1.02 µM. For the same molecule, the Ki at α-receptor worked out at 1.26e-06 M.
